Test results from EP0028063A1, “Phenol derivatives, processes for their preparation and pharmaceutical compositions containing them” (GLAXO GROUP LIMITED, priority 1979, dated 1981).

What was measured:
SRS-A = assay: Antagonism of the action of SRS-A on guinea-pig isolated ileum (method of Coleman et al.; pA2 by Arunlakshana and Schild); type: cell-based; conditions: Cavia porcellus, SRS-A induced contraction, compounds tested at concentrations of 10^-6 M
Description: The compounds according to the invention are potent antagonists of the action of slow reacting substance of anaphylaxis (SRS-A) as shown by their ability to inhibit the SRS-A induced contraction of guinea pig ileum (Coleman et al, Br. J. Pharmacol., 1979, 66, 83P). SRS-A is a naturally occurring substance which causes contraction of smooth muscle, especially bronchial muscle, and increases vascular permeability. The substance is not normally present in human tissue but is synthesised and released from certain cells during an allergic reaction. The compounds according to the invention are thus indicated for use in the treatment of disorders in which SRS-A may be a factor, for example, in obstructive airways diseases such as asthma, in hay fever and in skin afflictions.
The ability of the compounds to act as antagonists of the action of SRS-A was shown using guinea-pig isolated ileum according to the methods of Coleman et al, Br. J. Pharmacol., (1979), 66, 83P. Compounds were tested at concentrations of 10^-6 M and pA2 values were determined using the standard procedures of Arunlalkshana and Schild, Br. J. Pharmac.

dogs = assay: Oral tolerability in dogs; type: in vivo; conditions: given orally to dogs at doses of up to 10 mg/kg
Description: The compounds are in general non-toxic at therapeutically useful doses.

SMILES | Kb (SRS-A) | adverse effects (dogs)
CCCc1c(OCCCOc2ccc(C(=O)O)c(O)c2)ccc(C(C)=O)c1O [Example 8, 4-[3-(4-Acetyl-3-hydroxy-2-propylphcnoxy)propoxy]-2-hydroxybenzoic acid] | 15.8 nM | no adverse effects
CCCc1c(OCCCOc2cccc(-c3nn[nH]n3)c2)ccc(C(C)=O)c1O [Example 10b, 5-[3-[3-[4-Acetyl-3-hydroxy-2-propylphenoxy]propoxy]-phenyl]-lH-tetrazole] | 79.4 nM | 
CCCc1c(OCCCCCOc2cccc(C=CC(=O)O)c2)ccc(C(C)=O)c1O [Example 4b, 3-[3-[5-(4-Acetyl-3-hydroxy-2-propylphenoxy)pentyloxy]phenyl]-2-propenoic acid] | 50.1 nM | 
CCCc1c(OCCCOc2cccc(C=CC(=O)O)c2)ccc(C(C)=O)c1O [Example 2a, 3-[3-[3-(4-Acetyl-3-hydroxy-2-propylphenoxy)propoxy]-phenyl]-2-propenoic acid] | 39.8 nM | no adverse effects
CCCc1c(OCCCOc2cc(C=CC(=O)O)ccc2[N+](=O)[O-])ccc(C(C)=O)c1O [Example 9b, 3-[3-[3-[4-Acetyl-3-hydroxy-2-propylphenoxy]propoxy]-4-nitrophenyl]-2-propenoic acid] | 31.6 nM | 
CCCc1c(OCCCOc2cccc(CCC(=O)O)c2)ccc(C(C)=O)c1O [Example 5, 3-[3-(4-Acetyl-3-hydroxy-2-propylphenoxy)propoxy]bepzene propanoic acid] | 50.1 nM | no adverse effects
CCCc1c(OCCCOc2ccc(OCC(=O)O)cc2)ccc(C(C)=O)c1O [Example 1g] | 100 nM | 
CCCc1c(OCCCOc2ccc(C(=O)O)c(O)c2CCC)ccc(C(C)=O)c1O [Example 2c, 4-(3-(4-Aceltyl-3-hydroxy-2-propylphenoxy)propoxy] -2-hydroxy-3-propylbenzoic acid] | 39.8 nM | 
